According to patent US20250170114A1, “METHODS OF TREATMENT USING T-TYPE CALCIUM CHANNEL MODULATORS” (Praxis Precision Medicines, Inc., priority 2022, published 2025):
Entries after “also recorded” stand apart in the source; their conditions may differ.

What was measured:
participants with ET [1] = assay: Phase 2 trial Part B: Beck Anxiety Inventory (BAI); format: in vivo, human
Experimental: The Beck Anxiety Index (BAI) is a brief measure of anxiety with a specific attention on somatic symptoms of anxiety that was developed as a measure aimed at discriminating between anxiety and depression (Beck et al 1988). The BAI contains 21 questions about the common symptoms of anxiety that the subject could have experienced during the past week (including the day the BAI is administered). The common symptoms of anxiety include numbness and tingling, sweating not due to heat, and fear of the worst happening. It is designed for individuals who are of 17 years of age or older and takes 5 to 10 minutes to complete. Each answer is scored on a scale value of 0 (not at all) to 3 (severely). Higher total scores indicate more severe anxiety symptoms. The standardized cutoffs are the following: 0-7: minimal, 8-15: mild, 16-25: moderate, 26-63: severe.
(§1) In both phases, key safety measures included clinical laboratory evaluations, 12-lead ECG, C-SSRS, and vital signs. Key efficacy assessments included the TETRAS Performance subscale, TETRAS Upper Limb using accelerometry, CGI, PGI-C, TETRAS ADL Subscale, QUEST, BDI-II, and BAI. Blood samples were obtained for the determination of study drug and metabolite plasma concentrations.

[2] = test system: harmaline-induced hypolocomotion in male SD rats; assay: Co-dosing with propranolol in rat harmaline-induced hypolocomotion (open field, 30 min); format: in vivo; settings: harmaline 30 mg/kg, 3 mg/kg study drug alone (without propranolol), identical study
Experimental: Two harmaline model studies using sLMA as one ADL-like end point were carried out. In each of two sLMA studies, male SD rats were grouped into five groups according to the following table. In the first study, Groups 3, 4, and 5 received 3 mg/kg of propranolol and the compound of Formula (I) (the study drug) at the doses of 1 mg/kg or 3 mg/kg. In the second study, Groups 3, 4, and 5, received 10 mg/kg of propranolol and the study drug at the doses of 1 mg/kg or 3 mg/kg.
Rats were then subjected to an open field test for 30 minutes. Total distance travelled was measured.

[3] = Plasma and brain tissue concentrations in rats after harmaline testing; format: in vivo, rat; settings: collected immediately after harmaline testing
Experimental: Plasma and brain tissue sample collection (at 90 min post dosing of study compound) was evaluated in […]. N=15 in each group. Plasma and brain tissue samples were collected immediately after harmaline testing. Plasma sample number: 5×15=75. Brain tissue sample number: 5×15=75.

[4] = Phase 2 trial: study drug plasma concentrations; format: in vivo, human
Description: as §1, with “Key safety measures included clinical laboratory evaluations, 12-lead ECG, C-SSRS, and vital signs. Key efficacy assessments included the TETRAS Performance subscale, TETRAS Upper Limb using accelerometry, CGI, and PGI-C. Blood samples were obtained for the determination of study drug plasma concentrations using a validated bioanalytical method and may also be used for method development and/or metabolite characterization. In” for “In”

[5] = test system: harmaline-induced tremor in male SD rats; assay: Tremor assessment (tremor score 0-4) with harmaline in SD rats; format: in vivo, rat; settings: harmaline 30 mg/kg, doses of 1, 3 and 10 mg/kg, listed as compound of Formula (I)
Description: Each of six groups of male SD rats were subjected to a tremor assessment, followed by three ADL-like measures including open field test, rotarod test, and wire grip test after receiving doses of either vehicle, Formula (I), or propranolol, followed by either saline or harmaline, as outlined below in Table 22 below. Twenty minutes after administration of harmaline or saline, the rats were subjected to a tremor assessment using the score criteria outlined in the table below.

participants with ET [6] = assay: Phase 2 trial Part B: Quality of Life in Essential Tremor Questionnaire (QUEST); format: in vivo, human; settings: pre-dose baseline to Day 56, participants receiving study drug
Description: as §1

[7] = test system: harmaline-induced decrease in travelling distance in male SD rats; assay: Open field test with harmaline in SD rats; format: in vivo, rat; settings: harmaline 30 mg/kg, dose of 3 and 10 mg/kg
Experimental: Each of six groups of male SD rats were subjected to a tremor assessment, followed by three ADL-like measures including open field test, rotarod test, and wire grip test after receiving doses of either vehicle, Formula (I), or propranolol, followed by either saline or harmaline, as outlined below in Table 22 below.
Fifteen minutes after the tremor assessment, the rats were subjected to an open field test. FIG. 8 is a bar graph showing the traveling distance in 0-5 minutes (mm) measured in rats that were administered 30 mg/kg harmaline and also administered 10 mg/kg propranolol or 1 mg/kg, 3 mg/kg or 10 mg/kg study drug.

[8] = Part B OLT (FAS), Day 7, n = 13
[9] = Part B OLT (FAS), Day 21, n = 12
[10] = Part B OLT (FAS), Day 42, n = 11
[11] = Part B RWD (RWAS), Day 56, Study drug, n = 6
[12] = Part B RWD (RWAS), Day 70, Study drug, n = 5

## CC(C)(C)NC(=O)CN1CCC(CNC(=O)c2cc(F)cc(Cl)c2)CC1.Cl [Study drug]
Participants with ET [1]; [8]
  BAI Score Mild (8-15): 3 n (%)
  BAI Score Minimal (0-7): 7 n (%)
  BAI Score Moderate (16-25): 3 n (%)
  BAI Score Severe (26-63): 0 n (%)
Participants with ET [1]; [9]
  BAI Score Mild (8-15): 1 n (%)
  BAI Score Minimal (0-7): 9 n (%)
  BAI Score Moderate (16-25): 2 n (%)
  BAI Score Severe (26-63): 0 n (%)
Participants with ET [1]; [10]
  BAI Score Mild (8-15): 1 n (%)
  BAI Score Minimal (0-7): 9 n (%)
  BAI Score Moderate (16-25): 1 n (%)
  BAI Score Severe (26-63): 0 n (%)
Participants with ET [1]; [11]
  BAI Score Mild (8-15): 2 n (%)
  BAI Score Minimal (0-7): 4 n (%)
  BAI Score Moderate (16-25): 0 n (%)
  BAI Score Severe (26-63): 0 n (%)
Participants with ET [1]; [12]
  BAI Score Mild (8-15): 0 n (%)
  BAI Score Minimal (0-7): 4 n (%)
  BAI Score Moderate (16-25): 0 n (%)
  BAI Score Severe (26-63): 1 (20.0) n (%)
Participants with ET [1]; Part B open-label titration phase
  change in BAI scores: shift in BAI scores from mild to minimal anxiety
[2]
  harmaline-induced hypolocomotion (traveling distance in 0-30 minutes) vs harmaline and vehicle: not significantly different
[3]
  plasma and brain concentrations: consistent with those measured in previous studies
[4]; 1-hour post-dose, all participants
  study drug plasma concentrations: Measurable
[4]; after 56 days of daily dosing and a 14-day washout period
  study drug plasma concentrations: undetectable
[4]; human, plasma, oral, 120 mg, Part B, Day 42, steady-state
  concentration at 42 day: 379 ng/mL
[4]; human, plasma, oral, Part B, Day 56
  concentration at 56 day: 344 ng/mL
[5]
  average tremor score vs vehicle and harmaline only: significantly reduced; also recorded: significant inhibition
Participants with ET [6]
  Quality of life measured by QUEST: improved
[7]; listed as Formula (I)
  travelling distance in 0-5 minutes in open field vs vehicle and harmaline only: significantly attenuated
[7]; listed as compound of Formula (I)
  travelling distance in 0-5 minutes in open field vs vehicle and harmaline only: significantly attenuated decrease
